Assay results taken from US6900239B2, “Tumor chemopotentiation using isocoumarin derivatives” (ILWZ ILEX Products, Inc., priority 2000, dated 2005).

Key:
[1] = tested on: MDAMB-435 human breast tumor xenografts; assay: MDAMB-435 orthotopic model, NM-3 with 5-Fluorouracil; format: in vivo, female NCRNU nude mice; conditions: NM-3 100 mg/kg/day i.p. alone
Method: In order to evaluate the antitumor activity of NM-3 in combination with 5-Fluorouracil (5-FU) vs. MDAMB-435 human breast tumor xenografts, female NCRNU nude mice were implanted with MDAMB-435 cells into the subaxillary mammary fat pad. When the tumors were between 50 and 80 mm^3, NM-3 was administered via intraperitoneal (i.p.) injection daily at 10 and 100 mg/kg; 5-FU was administered via i.p. injection on days 0 and 14, at 10 mg/kg. Mice were weighed twice weekly, and tumor measurements were taken by calipers twice weekly. Mice were euthenized at the end of the treatment period. Upon termination, the mice were weighed, sacrificed and their tumors were excised.
Initial studies were conducted with 5-FU to determine the optimal dose of this agent when administered in combination with NM-3.

[2] = tested on: colon 26 adenocarcinoma; assay: Combination with cyclophosphamide, survival; format: in vivo, BALB/c mice
Method: To determine the effect on tumor growth of NM-3 treatment combined with simultaneous cyclophosphamide treatment, colon 26 adenocarcinoma cells (5×10^4 cells per mouse) were subcutaneously transplanted into BALB/c mice (female, 7 weeks old) in the inguinal area. NM-3 was continuously orally administered from day 1 to day 72 after the transplantation except on day 14 when cyclophosphamide was dosed.

[3] = tested on: RPMI8662 cells; assay: Cell viability by MTT assay; format: cell-based, human
Method: (§1) The human multiple myeloma cell line MM1.S was maintained in RPMI1640 medium supplemented with 10% fetal bovine serum, 100 units/ml penicillin, and 100 μg/ml streptomycin at 37° C. in an atmosphere of 5% CO2 in air. Cells (3×10^4 cells/well) were seeded in 96 well-plates and incubated with increasing concentrations of DEX or DOX in the presence or absence of NM-3. NM-3 was added at concentrations of 0, 50, 100 and 200 μg/ml 2 hours before the addition of DOX or DEX. After 24 hours of DOX or DEX exposure, 10 μl of MTT reagent (Roche Molecular Biochemicals, final concentration 0.5 mg/ml) was added to each well and allowed to incubate for 4 hours. After the incubation, 100 μl of solubilization solution (10% sodium dodecyl sulfate in 0.01M HCl) was added to each well and allowed to incubate overnight. Optical density at 565 nm was determined using a spectrophotometer (Molecular Devices Corp.).
(§2) The effects of NM-3 in combination with dexamethasone on the viability of RPM18662 and U266 human multiple meyeloma cells were investigated. Experimental conditions were as described in Example 11, with the exception that cells were seeded at 6×10^3 cells/well and the cells were incubated with the appropriate concentrations of NM-3 and DEX for either 48 or 72 hours prior to addition of the MTT reagent.

[4] = tested on: U266 cells; assay: Cell viability by MTT assay; format: cell-based, human
Method: as §1, §2

[5] = tested on: human tumor cells and normal mouse cells; assay: Cell growth (WST-1), summary over all cell lines; format: cell-based
Method: To determine the extent to which NM-3 [2-(8-hydroxy-6-methoxy-1-oxo-1H-2-benzopyran-3-yl) propionic acid] inhibited the proliferation of, or was cytotoxic toward, human tumor cells and normal mouse cells, a variety of cell lines were grown in the presence of NM-3. The human cell lines used were K562 (leukemia cells), HT29 (colon tumor cells) HT1080 (reticulum blast sarcoma cells), and MCF7 (breast tumor cells). The mouse cells used were NIH3T3 cells (fibroblasts). All cell lines were cultured in 96-well plates to a density of 2-5×10^3 cells/well. Culture medium (RPMI 1640 plus 10% FBS) alone or containing NM-3 at one of several concentrations tested was then added to the cultures which were allowed to grow for an additional 3 days. To assess cell growth, 10 μl of WST-1 reagent (a chromogenic substrate for living cells) was added to each well and incubation continued for 3 hrs at 37° C. Absorbance at 450 nm was then determined using a plate reader.

[6] = tested on: Human umbilical vein endothelial cells (HUVEC); assay: HUVEC colony formation with a constant amount of gamma radiation; format: cell-based
Method: Human umbilical vein endothelial cells (HUVEC) were exposed to a constant amount of gamma radiation in the presence or absence of various concentrations of NM-3 in the culture medium. The numbers of HUVEC colonies that formed following the different treatments were recorded and normalized to the number of colonies formed under control (no NM-3) conditions and the results are shown in FIG. 1. […] For comparison, HUVEC cells were treated with either angiostatin or endostatin, two additional anti-angiogenic proteins.

[7] = tested on: LLC tumor; assay: LLC tumors, second experiment, complete cures; format: in vivo; conditions: NM-3 25 μg/kg daily over the first four days + 20 Gy X-irradiation on days 2 and 4
Method: In a second similar experiment, X-ray treatment and X-ray treatment combined with NM-3 treatment were again compared for their relative abilities to inhibit LLC tumor growth. However, the treatment period was extended to determine whether either treatment regimen was able to initiate complete tumor cures. Animals were injected with […] initially and starting tumor volumes were approximately 500 mm^3. Tumors were irradiated on days 2 and 4 with 20 Gy X-irradiation. NM-3 was administered at 25 μg/kg daily over the first four days. The tumors of both groups increased slightly in size following initiation of treatment and then began to decrease after several days. Tumors in the X-ray only group began to increase steadily in size after the 10th day of continuous treatment. In contrast, tumors in the NM-3+X-ray group continued to decrease in size following the initial growth phase. Ultimately, 9 of 10 animals receiving NM-3+X-ray treatment experienced a complete cure while only 3 of 10 animals were cured by the X-ray treatment alone.

[8] = tested on: B16-BL6 melanoma cells; assay: Experimental tumor metastasis (lung colonies); format: in vivo, BDF1 mice; conditions: for Inhibition (%): days 1~13; for Number of lung metastases (Mean ± S.D.): days 1~13, counted day 14
Excerpt: To determine the antitumor effect of NM-3 on metastatic tumor growth, B16-BL6 melanoma cells (2×10^4 cells per mouse) were transplanted into BDF1 mice (female, 5 weeks old) via the tail vein. NM-3 was continuously administered via the oral route for 13 days following transplantation of the tumor cells. On day 14, the lungs were excised and fixed, and the metastatic colony numbers were counted.

[9] = NM-3 1 mg/kg p.o. days 1-13, 15-72 alone
[10] = NM-3 5 mg/kg p.o. days 1-13, 15-72 alone
[11] = NM-3 alone, 50 and 100 μg/ml, 72 hours preincubation
[12] = NM-3 alone, 48 hour preincubation

Compound: COc1cc(O)c2c(=O)oc(C(C)C(=O)O)cc2c1 (stereo not drawn) [NM-3, 2-(8-hydroxy-6-methoxy-1-oxo-1H-2-benzopyran-3-yl) propionic acid]
- % Tumor Growth Inhibition [1]: 24.1%
- Mean Survival Days (days ± S.D.) [2, 9]: 33.9 ± 13.6 days
- T/C (%) [2, 9]: 102.7%
- Mean Survival Days (days ± S.D.) [2, 10]: 23.5 ± 3.7 days
- T/C (%) [2, 10]: 71.2%
- Survival times versus control ([2]; NM-3 alone, 1 or 5 mg/kg): did not increase survival times
- Potentiation of DEX-induced cell death ([3]; 48 or 72 hours): potentiated DEX-induced cell death
- Decrease in cell viability [3, 11]: less evident
- Cell viability [3, 12]: dose dependent decrease in cell viability
- Potentiation of DEX-induced cell death ([4]; 48 or 72 hours): potentiated DEX-induced cell death
- Decrease in cell viability [4, 11]: less evident
- Cell viability [4, 12]: dose dependent decrease in cell viability
- IC50 [5]: > 100 µg/mL
- ED50, decrease of HUVEC colony formation [6]: approximately 1 μg/ml
- Animals with complete cure [7]: 9 of 10
- Inhibition (%) ([8]; 0.08 mg/kg p.o.): −5.3%
- Number of lung metastases (Mean ± S.D.) ([8]; 0.08 mg/kg p.o.): 88.7 ± 16.1
- Inhibition (%) ([8]; 0.31 mg/kg p.o.): 24.0%
- Number of lung metastases (Mean ± S.D.) ([8]; 0.31 mg/kg p.o.): 64.0 ± 23.8
- Inhibition (%) ([8]; 1.25 mg/kg p.o.): 13.8%
- Number of lung metastases (Mean ± S.D.) ([8]; 1.25 mg/kg p.o.): 72.6 ± 20.6
- Inhibition (%) ([8]; 5.0 mg/kg p.o.): 18.8%
- Number of lung metastases (Mean ± S.D.) ([8]; 5.0 mg/kg p.o.): 68.4 ± 16.9
- Number of pleural metastatic foci versus control ([8]; 0.08 to 5 mg/kg p.o.): reduction in the number of pleural metastatic foci
